Experimental findings from patent US7465448B2, “Chemokine receptor antagonists as therapeutic agents” (Medical College of Georgia Research Institute, Inc., priority 2002, dated 2008) are described below.

Entries after “also recorded” stand apart in the source; their conditions may differ. Bounds are passed on as bounds.

Assay [1] addresses T1, IDO (Mus musculus, UniProt P28776).
T1 construct: from tissue; host or cells: tumor-draining inguinal lymph node cells (sorted fractions) of C57BL/6 mice bearing B78.GM tumors
Put plainly: MLR with sorted mouse tumor-draining lymph node cell fractions and BM3 T cell responders, with or without 1MT. The class given is cell-based. The settings on record: wild-type host, B78.GM tumor-draining LN. The text has this: (§1) Lymph node (LN) cells were harvested from inguinal LNs draining established B78.GM tumors. Control cells were harvested from the contralateral inguinal nodes in the same mouse. LN cells were irradiated and used as stimulators in allo-MLRs, with the responder cells being TCR-transgenic CD8^+ T cells from BM3 mice, as BM3 T cells recognize H-2K^b as an alloantigen (Tarazona, R., et al., Int. Immunol., 8:351-358, (1996)), and thus are reactive with all MHC class I positive cells from C57BL/6 tumor-bearing hosts. These cells are known by those of skill in the art to be a recognized assay system for IDO-mediated suppression of the T cell response (Munn, D. H., et al., Science, 297:1867-1870, (2002); Lee et al., Immunol., 107:1-9, (2002)). […] To determine the etiology of T cell suppression by APCs, tumor draining lymph node cells were harvested from B78.GM tumors and sorted into a B220^+ CD11c^+ plasmacytoid dendritic cell (pDC) fraction and a CD25^+CD4^+ regulatory T-cell (Treg) fraction. A third “all other” fraction was also collected. Each fraction was used as stimulators in an MLR with BM3 responders. […] Pooled draining LN cells (4 nodes) were stained and fractionated by 4-color cell sorting for the two populations shown in the top schematic. All other cells were collected in a third fraction. Each fraction was then used as stimulators in MLRs (FIG. 13), using 50,000 BM3 T cells as responders. The number of stimulators used in each MLR was adjusted to be the same as would have been present in 50,000 cells of the original LN preparation, based on the measured percentage of each sorted fraction. Thus, in the experiment shown, 500 cells of the sorted B220^+ CD11c^+ fraction were added per well, and 1500 cells of the CD25^+ CD4^+ fraction, while 48,000 cells of the “all other” fraction were used.

Assay [2] has as its system IDO. Described as above. Type of assay: cell-based.
Excerpt: as §1

Assay [3] relates to CCR6^+/IDO^+ APCs. Put plainly: Mip-3α-induced chemotaxis of dendritic cells, upper/lower chamber (Example 8). The settings on record: 0.5×10^6 DCs/well, after 4 hours. The class given is cell-based, human. The procedure: In this experiment, mip-3α-induced chemotaxis of CCR6^+/IDO^+ APCs was measured. Dendritic cells matured with a cytokine cocktail as described herein were used for a chemotaxis assay with mip-3α as the chemoattractant. Thus, monocytes were cultured in serum free medium (X-Vivo15) for five days in the presence of GMCSF (50 ng/mL) and IL-4 (50 ng/mL). After five days, cells were treated with a cytokine cocktail consisting of IL-1β (1870 U/mL), IL-6 (1000 U/mL), TNFα (1100 U/mL) and prostaglandin E2 (PGE2; 1.0 μg/mL), for two days. The cells were harvested and used for the chemotaxis assay. Control starting DCs were immunostained for CD123 and CCR6 (“Pre-Chemotaxis DCs”).
Mip-3α (0.5 μg/mL) was added to the different chambers and a defined number of DCs (0.5×10^6/well) were put on the upper chamber. After 4 hours, cells were counted in lower chamber of each group (Table 2). FACS immunostain was performed on all groups for CCR6 and CD123 (FIG. 7). […] Migration required a gradient of mip-3α from the upper chamber to the lower chamber, consistent with ligand induced chemotaxis.

The target in assay [4] is T2, CCR6 receptor (Homo sapiens, UniProt P51684).
T2 construct: a mixture of both CD123-positive (CCR6-positive) and CD123-negative (CCR6-negative) cells; endogenous in cells; host or cells: human monocyte-derived dendritic cells (mixed adherent and non-adherent fractions)
T2 sequence (P51684 1-374): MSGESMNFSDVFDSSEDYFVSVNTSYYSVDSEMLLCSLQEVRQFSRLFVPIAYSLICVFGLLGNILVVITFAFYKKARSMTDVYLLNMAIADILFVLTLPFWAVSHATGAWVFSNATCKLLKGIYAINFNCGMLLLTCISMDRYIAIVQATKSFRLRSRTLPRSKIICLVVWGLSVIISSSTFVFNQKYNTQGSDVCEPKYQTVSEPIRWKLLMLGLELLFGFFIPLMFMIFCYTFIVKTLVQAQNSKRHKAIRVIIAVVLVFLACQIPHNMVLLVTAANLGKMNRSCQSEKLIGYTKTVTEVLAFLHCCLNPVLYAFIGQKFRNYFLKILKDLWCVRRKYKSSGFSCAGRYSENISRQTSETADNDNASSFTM
Put plainly: Mip-3α gradient migration of mixed DCs with or without blocking anti-CCR6 antibody (Example 9). Type of assay: cell-based. From the text: Monocyte-derived human dendritic cells (adherent and non-adherent fractions) were harvested and pooled, as described in Example 8, yielding a preparation comprising a mixture of both CD123-positive (CCR6-positive) and CD123-negative (CCR6-negative) cells. In Example 8, it was shown that a gradient of mip-3α caused selective migration of the CD123+ (CCR6+) population.
The mixed population of DCs was allowed to migrate across a porous membrane in response to a gradient of mip-3alpha, as described in Example 8. Different treatment groups received a commercial anti-CCR6 antibody (10 ug/ml), an isotype-matched control antibody at the same concentration, or no antibody. After 18 hrs, migrating cells (recovered in the lower chamber of the chemotaxis assay apparatus) were harvested, counted, and analyzed by flow cytometry for CD123 expression. CD123 was used as a marker to identify the IDO-expressing population, rather than CCR6, because the anti-CCR6 blocking antibody could artifactually interfere with immunofluorescent staining for CCR6. Since both markers are co-expressed on the IDO+ cells with a one-to-one correspondence, either marker gives equivalent information.

Assay [5] has as its target T3, CXCR4 (Homo sapiens, UniProt P61073).
T3 construct: expressed in transfected cells; host or cells: Saccharomyces cerevisiae, CXCR4 subcloned in the Cp4258 vector, coupled through a mammalian/yeast hybrid G subunit
Description: Yeast (S. cerevisiae) pheromone-pathway signaling assay with expressed CXCR4. The conditions noted are these: yeast strains expressing CXCR4-WT; not in control cells lacking the receptor. The class given is cell-based. The text has this:
For example, CCR6 can be functionally expressed in S. cerevisiae for the purpose of screening putative antagonists and for generating constitutively active mutants (CAMs). Similar studies have been performed by the inventors using related […] receptors CXCR4 and CCR5. Thus, chemokine receptors CXCR4 and CCR5 were expressed in a yeast strain in which these guanine nucleotide protein receptors (GPRs) were coupled to the mating pheromone response pathway by a mammalian/yeast hybrid G subunit. Consequently, stimulation of CXCR4 and CCR5 by the cognate ligands (SDF-1 and RANTES, respectively) activated signal transduction that results in histidine prototrophy or, in strains also carrying a pheromone-responsive FUS1-lacZ reporter gene, beta-galactosidase expression. In these experiments, SDF-1 stimulated histidine-independent growth and reporter gene expression in yeast strains expressing CXCR4-WT, but not in control cells lacking the receptor. […] All available CXCR4 antagonists blocked growth in histidine deficient medium resulting from CXCR4 activation and the induction of reporter gene expression stimulated by SDF-1.

T1 sequence (P28776 whole entry): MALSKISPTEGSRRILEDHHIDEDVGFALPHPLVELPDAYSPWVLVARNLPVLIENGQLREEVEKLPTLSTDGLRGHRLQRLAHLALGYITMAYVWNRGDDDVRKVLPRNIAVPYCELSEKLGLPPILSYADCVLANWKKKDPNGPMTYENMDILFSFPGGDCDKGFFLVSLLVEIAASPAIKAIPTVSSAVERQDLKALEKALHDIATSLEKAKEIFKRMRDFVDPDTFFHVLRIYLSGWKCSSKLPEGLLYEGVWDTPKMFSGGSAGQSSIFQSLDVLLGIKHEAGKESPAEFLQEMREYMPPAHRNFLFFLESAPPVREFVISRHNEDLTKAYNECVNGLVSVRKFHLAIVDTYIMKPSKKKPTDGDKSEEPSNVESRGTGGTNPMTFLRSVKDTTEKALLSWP
T3 sequence (P61073 whole entry, species assumed): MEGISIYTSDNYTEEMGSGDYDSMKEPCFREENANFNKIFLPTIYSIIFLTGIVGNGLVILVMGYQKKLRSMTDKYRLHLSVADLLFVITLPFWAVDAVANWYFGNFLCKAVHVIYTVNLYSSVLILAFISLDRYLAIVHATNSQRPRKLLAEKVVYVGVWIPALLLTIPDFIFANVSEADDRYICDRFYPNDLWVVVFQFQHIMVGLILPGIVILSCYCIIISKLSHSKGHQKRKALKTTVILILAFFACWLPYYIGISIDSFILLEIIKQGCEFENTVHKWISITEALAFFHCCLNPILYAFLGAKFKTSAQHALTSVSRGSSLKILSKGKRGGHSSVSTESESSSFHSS

Consider `Cn1cc(CC(N)C(=O)O)c2ccccc21` (centres unmarked) [1-MT, 1-methyl-(D,L)-tryptophan], for which, in assay [1], the “IDO-mediated suppression in mixing experiments (pDCs plus "all other" fraction)” value is given as “can be fully reversed; also recorded: again fully reversed” and the “Suppression by B220+ CD11c+ (pDC) fraction” value is given as “fully reversed”. The “Effect on MLR with LN fractions from IDO-knockout host” value in assay [2] (IDO-KO host, any group) is “no enhancing effect”. For the same compound, the “Suppression mediated by CD25+ CD4+ Tregs” value in assay [2] (wild-type host, B78.GM tumor-draining LN) is recorded as “not affected”.
Consider “Mip-3α: chemokine, ligand for the CCR6 chemokine receptor; chemotactic factor for immature dendritic cells”, for which the “Number of Cells in Lower Chamber” value amounted to 2.96 in assay [3] (Mip-3α (0.5 μg/mL) in lower chamber only (gradient)); 0.98 in assay [3] (Mip-3α (0.5 μg/mL) in upper and lower chamber); 0.73 in assay [3] (Mip-3α (0.5 μg/mL) in upper chamber only). In assay [4] (gradient of mip-3α, 18 hrs), the “Increase of migration of CD123+ cells” value is listed as > 10 fold. Also, the “Purity of CD123+ cells in migrated population” value in assay [4] (gradient of mip-3α, starting population 68% CD123+) is listed as 96%. Also, the “Mip-3α induced migration without gradient” value in assay [4] (mip-3α present on both sides of the membrane) was “substantially reduced”.
Consider SDF-1: cognate ligand of CXCR4, for which the “Histidine-independent growth and reporter gene expression” value in assay [5] is listed as “stimulated”.
